In ChEMBL document CHEMBL5260810, “Inhibition of bromodomain-containing protein 9 for the prevention of epigenetically-defined drug resistance” (Bioorg Med Chem Lett, 2017):
The source made the active and inactive calls. The rule behind the calls is not given here.

Experiments:
Type in all cases: functional, cell-based
HPAC = assay: Antiproliferative activity against HPAC assessed as reduction in colony formation upto 20 uM supplemented with fresh medium containing compound every 3 days for 9 days by MTT staining based clonogenic assay; conditions: Homo sapiens, time 9.0 day
REH = assay: Cytotoxicity against human REH cells measured after 8 days; conditions: 192 h
NB-4 = assay: Cytotoxicity against human NB-4 cells measured after 8 days; conditions: NB-4, 192 h
PC-9 = assay: Antiproliferative activity against human PC-9 cells assessed as reduction in colony formation at 1 uM supplemented with fresh medium containing compound every 3 days by MTT staining based assay; conditions: time 9.0 day
[1] = Cytotoxicity against human KMS-21BM cells measured after 3 days; conditions: 72 h
NAMALVA = assay: Cytotoxicity against human NAMALVA cells measured after 3 days; conditions: 72 h
[2] = Cytotoxicity against human OCI-M2 cells measured after 3 days; conditions: OCI-M2, 72 h
769-P = assay: Cytotoxicity against human 769-P cells measured after 3 days; conditions: 72 h
Hep 3B2 = assay: Cytotoxicity against human Hep 3B2.1-7 cells measured after 3 days; conditions: Hep3B, 72 h
[3] = Cytotoxicity against human JHH-6 cells measured after 3 days; conditions: JHH-6, 72 h
[4] = Cytotoxicity against human JHH7 cells measured after 3 days; conditions: JHH7, 72 h
PLC-PRF-5 = assay: Cytotoxicity against human PLC-PRF-5 cells measured after 3 days; conditions: PLC-PRF-5, 72 h
NCI-H1734 = assay: Cytotoxicity against human NCI-H1734 cells measured after 3 days; conditions: NCI-H1734, 72 h
NCI-H1944 = assay: Cytotoxicity against human NCI-H1944 cells measured after 3 days; conditions: NCI-H1944, 72 h
OCI-AML-5 = assay: Cytotoxicity against human OCI-AML5 cells measured after 3 days; conditions: OCI-AML-5, 72 h
NCI-H929 = assay: Cytotoxicity against human NCI-H929 cells measured after 3 days; conditions: NCI-H929, 72 h
LN-18 = assay: Cytotoxicity against human LN-18 cells measured after 3 days; conditions: LN-18, 72 h
BT-20 = assay: Cytotoxicity against human BT-20 cells measured after 3 days; conditions: BT-20, 72 h
NCI-H460 = assay: Cytotoxicity against human NCI-H460 cells measured after 3 days; conditions: NCI-H460, 72 h
U-698-M = assay: Cytotoxicity against human U-698-M cells measured after 3 days; conditions: 72 h
SU-DHL-6 = assay: Cytotoxicity against human SU-DHL-6 cells measured after 3 days; conditions: SU-DHL-6, 72 h
[5] = Cytotoxicity against human WSU-FSCCL cells measured after 3 days; conditions: 72 h
PEO1 = assay: Cytotoxicity against human PEO1 cells measured after 3 days; conditions: PEO1, 72 h
EFM-19 = assay: Cytotoxicity against human EFM-19 cells measured after 3 days; conditions: EFM-19, 72 h
HCC1954 = assay: Cytotoxicity against human HCC1954 cells measured after 3 days; conditions: HCC1954, 72 h
CAMA-1 = assay: Cytotoxicity against human CAMA-1 cells measured after 3 days; conditions: CAMA-1, 72 h
MDA-MB-175-VII = assay: Cytotoxicity against human MDA-MB-175-VII cells measured after 3 days; conditions: 72 h
T47D = assay: Cytotoxicity against human T47D cells measured after 3 days; conditions: 72 h
HBL-100 = assay: Cytotoxicity against human HBL-100 cells measured after 3 days; conditions: HBL-100, 72 h
SUM-159-PT = assay: Cytotoxicity against human SUM159PT cells measured after 3 days; conditions: 72 h
[6] = Cytotoxicity against human HCC1493 cells measured after 3 days; conditions: HCC1493, 72 h
[7] = Cytotoxicity against human CoCM-1 cells measured after 3 days; conditions: CoCM-1, 72 h
[8] = Cytotoxicity against human OVCA432 cells measured after 3 days; conditions: OVCA432, 72 h
OVCAR-4 = assay: Cytotoxicity against human OVCAR-4 cells measured after 3 days; conditions: OVCAR-4, 72 h
[9] = Cytotoxicity against human RMUG-S cells measured after 3 days; conditions: 72 h
[10] = Cytotoxicity against human COV434 cells measured after 3 days; conditions: COV434, 72 h
OAW-28 = assay: Cytotoxicity against human OAW28 cells measured after 3 days; conditions: OAW-28, 72 h
[11] = Cytotoxicity against human TYK-nu.CP-r cells measured after 3 days; conditions: 72 h
[12] = Cytotoxicity against human COV413A cells measured after 3 days; conditions: 72 h
[13] = Cytotoxicity against human BM-1604 cells measured after 3 days; conditions: BM-1604, 72 h
PC-3 = assay: Cytotoxicity against human PC-3 cells measured after 3 days; conditions: PC-3, 72 h
MCF7 = assay: Cytotoxicity against human MCF-7-SER cells measured after 8 days; conditions: MCF7, 192 h
MDA-MB-415 = assay: Cytotoxicity against human MDA-MB-415 cells measured after 8 days; conditions: MDA-MB-415, 192 h
EBC-1 = assay: Cytotoxicity against human EBC-1 cells after 8 days; conditions: EBC-1, 192 h
NCI-H1573 = assay: Cytotoxicity against human NCI-H1573 cells after 8 days; conditions: NCI-H1573, 192 h

Structure (SMILES): C/C=C/Cn1cc(-c2ccc(C(C)(C)O)cc2OC)c2cc[nH]c2c1=O
- Activity (HPAC): inactive
- IC50 (REH): 20 µM
- IC50 (NB-4): 20 µM

Structure (SMILES): C/C=C/Cn1cc(-c2cc(OC)c(C(=O)N3CCOCC3)cc2OC)c2cc(C)[nH]c2c1=O
- Activity (PC-9): inactive
- IC50 [1]: 5 µM
- IC50 (NAMALVA): 5 µM
- IC50 [2]: 5 µM
- IC50 (769-P): 5 µM
- IC50 (Hep 3B2): 5 µM
- IC50 [3]: 5 µM
- IC50 [4]: 5 µM
- IC50 (PLC-PRF-5): 5 µM
- IC50 (NCI-H1734): 5 µM
- IC50 (NCI-H1944): 5 µM
- IC50 (OCI-AML-5): 5 µM
- IC50 (NCI-H929): 5 µM
- IC50 (LN-18): 5 µM
- IC50 (BT-20): 5 µM
- IC50 (NCI-H460): 5 µM
- IC50 (U-698-M): 5 µM
- IC50 (SU-DHL-6): 5 µM
- IC50 [5]: 5 µM
- IC50 (PEO1): 5 µM
- IC50 (EFM-19): 5 µM
- IC50 (HCC1954): 5 µM
- IC50 (CAMA-1): 5 µM
- IC50 (MDA-MB-175-VII): 5 µM
- IC50 (T47D): 5 µM
- IC50 (HBL-100): 5 µM
- IC50 (SUM-159-PT): 5 µM
- IC50 [6]: 5 µM
- IC50 [7]: 5 µM
- IC50 [8]: 5 µM
- IC50 (OVCAR-4): 5 µM
- IC50 [9]: 5 µM
- IC50 [10]: 5 µM
- IC50 (OAW-28): 5 µM
- IC50 [11]: 5 µM
- IC50 [12]: 5 µM
- IC50 [13]: 5 µM
- IC50 (PC-3): 5 µM
- IC50 (MCF7): 2 µM
- IC50 (MDA-MB-415): 2 µM
- IC50 (EBC-1): 2 µM
- IC50 (NCI-H1573): 2 µM
